{"source": "patent US20040198788A1", "about": "“Medicinal compositions containing angiotensin II receptor antagonist” (SANKYO COMPANY, LIMITED, priority 2001, published 2004)", "test_system": "Watanabe heritable hyperlipidemic (WHHL) rabbits", "experiment": "Determination of aortic lesioned area", "type": "in vivo, rabbit", "settings": "olmesartan 0.5 mg/kg, compound A 20 mg/kg", "procedure": "Determination of Aortic Lesioned Area Watanabe heritable hyperlipidemic (WHHL) rabbits aged 16 weeks were divided in 4 groups consisting of 12 or 13 animals each: control group (5% gum arabic solution), olmesartan (0.5 mg/kg) group, compound A (20 mg/kg) group, and combination group of olmesartan (0.5 mg/kg) and compound A (20 mg/kg). These test agents were orally administered for 24 weeks. After the 24th week, the rabbits were sacrificed and their aorta were isolated to determine the aortic lumen area and arteriosclerotic lesion area in the aortic lumen. Then the percentage of arteriosclerotic lesion area in the aortic lumen [arteriosclerotic lesion area in the aortic lumen/the aortic lumen area]×100 (%)] was calculated.", "data": [{"smiles": "CCCCCCCCN1CCc2c(C)c(CC(=O)O)c(C)c(NC(=O)C(C)(C)C)c21.O=S(=O)(O)O", "note": "[compound A, N-(1-octyl-5-carboxymethyl-4,6-dimethylindolin-7-yl)-2,2-dimethylpropaneamide sulfate]", "values": [{"measurement": "lesion area in % (percentage of arteriosclerotic lesion area in the aortic lumen)", "setting": "WHHL rabbits aged 16 weeks, oral administration for 24 weeks, control group 59.7", "value": 59.0, "unit": "%"}, {"measurement": "arteriosclerotic lesion area compared with control / single-administration groups (in words)", "setting": "WHHL rabbits, oral, 24 weeks", "value": "little affected"}]}]}
